Results from ChEMBL document CHEMBL3826915, “Design and comparative anticonvulsant activity assessment of CNS-active alkyl-carbamoyl imidazole derivatives” (Bioorg Med Chem, 2016).
Active and inactive are the calls of the source. The rule behind the calls is not given here.

Assays:
Mus musculus [1] = assay: Anticonvulsant activity in albino CF1 mouse assessed as protection against maximal electroshock-induced seizures at 100 mg/kg, ip after 0.5 hrs; type: functional, organism-based
Mus musculus [2] = assay: Anticonvulsant activity in albino CF1 mouse assessed as protection against maximal electroshock-induced seizures at 30 mg/kg, ip after 0.5 hrs; type: functional, organism-based
Mus musculus [3] = assay: Anticonvulsant activity in albino CF1 mouse assessed as protection against maximal electroshock-induced seizures at 100 mg/kg, ip after 2 hrs; type: functional, organism-based
Mus musculus [4] = assay: Anticonvulsant activity in albino CF1 mouse assessed as protection against 32 mA current-induced seizure at 300 mg/kg, ip after 0.5 hrs by 6 Hz psychomotor test; type: functional, organism-based
Mus musculus [5] = assay: Anticonvulsant activity in albino CF1 mouse assessed as protection against 32 mA current-induced seizure at 30 mg/kg, ip after 2 hrs by 6 Hz psychomotor test; type: functional, organism-based
Mus musculus [6] = assay: Anticonvulsant activity in albino CF1 mouse assessed as protection against 44 mA current-induced seizure at 100 mg/kg, ip after 0.25 hrs by 6 Hz psychomotor test; type: functional, organism-based
Mus musculus [7] = assay: Neurotoxicity in albino CF1 mouse assessed as behavioral impairment at 30 mg/kg, ip after 0.5 hrs by rotorod test; type: toxicity, organism-based; conditions: in vivo
Mus musculus [8] = assay: Neurotoxicity in albino CF1 mouse assessed as behavioral impairment at 300 mg/kg, ip after 0.5 hrs by rotorod test; type: toxicity, organism-based; conditions: in vivo
Mus musculus [9] = assay: Neurotoxicity in albino CF1 mouse assessed as behavioral impairment at 30 mg/kg, ip after 2 hrs by rotorod test; type: toxicity, organism-based; conditions: in vivo
Mus musculus [10] = assay: Neurotoxicity in albino CF1 mouse assessed as behavioral impairment at 100 mg/kg, ip after 2 hrs by rotorod test; type: toxicity, organism-based; conditions: in vivo
Mus musculus [11] = assay: Neurotoxicity in albino CF1 mouse assessed as behavioral impairment at 300 mg/kg, ip after 2 hrs by rotorod test; type: toxicity, organism-based; conditions: in vivo
Mus musculus [12] = assay: Neurotoxicity in albino CF1 mouse assessed as behavioral impairment at 100 mg/kg, ip after 0.25 hrs by rotorod test; type: toxicity, organism-based; conditions: in vivo
Mus musculus [13] = assay: Neurotoxicity in albino CF1 mouse assessed as behavioral impairment at 100 mg/kg, ip after 1 hr by rotorod test; type: toxicity, organism-based; conditions: in vivo
Rattus norvegicus [14] = assay: Anticonvulsant activity in albino Sprague-Dawley rat assessed as protection against maximal electroshock-induced seizures at 30 mg/kg, ip after 0.25 hrs; type: functional, organism-based
Rattus norvegicus [15] = assay: Anticonvulsant activity in albino Sprague-Dawley rat assessed as protection against maximal electroshock-induced seizures at 30 mg/kg, ip after 0.5 hrs; type: functional, organism-based
Rattus norvegicus [16] = assay: Anticonvulsant activity in albino Sprague-Dawley rat assessed as protection against maximal electroshock-induced seizures at 30 mg/kg, po after 0.5 hrs; type: functional, organism-based
Rattus norvegicus [17] = assay: Anticonvulsant activity in albino Sprague-Dawley rat assessed as protection against maximal electroshock-induced seizures at 30 mg/kg, ip after 1 hr; type: functional, organism-based
Rattus norvegicus [18] = assay: Anticonvulsant activity in albino Sprague-Dawley rat assessed as protection against maximal electroshock-induced seizures at 30 mg/kg, po after 1 hr; type: functional, organism-based
Rattus norvegicus [19] = assay: Anticonvulsant activity in albino Sprague-Dawley rat assessed as protection against maximal electroshock-induced seizures at 30 mg/kg, ip after 2 hrs; type: functional, organism-based
Rattus norvegicus [20] = assay: Anticonvulsant activity in albino Sprague-Dawley rat assessed as protection against maximal electroshock-induced seizures at 30 mg/kg, po after 2 hrs; type: functional, organism-based
Rattus norvegicus [21] = assay: Neurotoxicity in albino Sprague-Dawley rat assessed as behavioral impairment at 30 mg/kg, ip after 0.25 hrs by rotorod test; type: toxicity, organism-based; conditions: in vivo
Rattus norvegicus [22] = assay: Neurotoxicity in albino Sprague-Dawley rat assessed as behavioral impairment at 30 mg/kg, po after 0.25 hrs by rotorod test; type: toxicity, organism-based; conditions: in vivo
Rattus norvegicus [23] = assay: Neurotoxicity in albino Sprague-Dawley rat assessed as behavioral impairment at 30 mg/kg, ip after 0.5 hrs by rotorod test; type: toxicity, organism-based; conditions: in vivo
Rattus norvegicus [24] = assay: Neurotoxicity in albino Sprague-Dawley rat assessed as behavioral impairment at 30 mg/kg, po after 0.5 hrs by rotorod test; type: toxicity, organism-based; conditions: in vivo
Rattus norvegicus [25] = assay: Neurotoxicity in albino Sprague-Dawley rat assessed as behavioral impairment at 30 mg/kg, ip after 1 hr by rotorod test; type: toxicity, organism-based; conditions: in vivo
Rattus norvegicus [26] = assay: Neurotoxicity in albino Sprague-Dawley rat assessed as behavioral impairment at 30 mg/kg, po after 1 hr by rotorod test; type: toxicity, organism-based; conditions: in vivo
Rattus norvegicus [27] = assay: Neurotoxicity in albino Sprague-Dawley rat assessed as behavioral impairment at 30 mg/kg, ip after 2 hrs by rotorod test; type: toxicity, organism-based; conditions: in vivo
Rattus norvegicus [28] = assay: Neurotoxicity in albino Sprague-Dawley rat assessed as behavioral impairment at 30 mg/kg, po after 2 hrs by rotorod test; type: toxicity, organism-based; conditions: in vivo
Rattus norvegicus [29] = assay: Anticonvulsant activity in ip dosed albino Sprague-Dawley rat assessed as protection against maximal electroshock-induced seizures; type: functional
Rattus norvegicus [30] = assay: Anticonvulsant activity in ip dosed albino Sprague-Dawley rat assessed as protection against maximal electroshock-induced seizures by measuring time to peak effect; type: functional
[31] = Protective index, ratio of TD50 for neurotoxicity in ip dosed albino Sprague-Dawley rat to ED50 for anticonvulsant activity in ip dosed maximal electroshock-induced seizure albino Sprague-Dawley rat model; type: toxicity, organism-based; conditions: in vivo, read-out: Ratio TD50/ED50
Rattus norvegicus [32] = assay: Anticonvulsant activity in ip dosed albino Sprague-Dawley rat assessed as protection against subcutaneous metrazol-induced seizures; type: functional
[33] = Protective index, ratio of TD50 for neurotoxicity in ip dosed albino Sprague-Dawley rat to ED50 for anticonvulsant activity in ip dosed subcutaneous metrazol-induced seizure albino Sprague-Dawley rat model; type: toxicity, organism-based; conditions: in vivo, read-out: Ratio TD50/ED50
[34] = Neurotoxicity in ip dosed albino Sprague-Dawley rat assessed as motor impairment by rotorod test; type: toxicity, organism-based; conditions: in vivo
Rattus norvegicus [35] = assay: Anticonvulsant activity in ip dosed albino Sprague-Dawley rat assessed as protection against subcutaneous metrazol-induced seizures by measuring time to peak effect; type: functional
Mus musculus [36] = assay: Anticonvulsant activity in ip dosed albino CF1 mouse assessed as protection against maximal electroshock-induced seizures; type: functional
[37] = Protective index, ratio of TD50 for neurotoxicity in ip dosed albino CF1 mouse to ED50 for anticonvulsant activity in ip dosed maximal electroshock-induced seizure albino CF1 mouse model; type: toxicity, organism-based; conditions: in vivo, read-out: Ratio TD50/ED50
Mus musculus [38] = assay: Anticonvulsant activity in ip dosed albino CF1 mouse assessed as protection against subcutaneous metrazol-induced seizures; type: functional
[39] = Protective index, ratio of TD50 for neurotoxicity in ip dosed albino CF1 mouse to ED50 for anticonvulsant activity in ip dosed […] metrazol-induced seizure albino CF1 mouse model; type: toxicity, organism-based; conditions: in vivo, read-out: Ratio TD50/ED50
Mus musculus [40] = assay: Anticonvulsant activity in ip dosed albino CF1 mouse assessed as protection against maximal electroshock-induced seizures by measuring time to peak effect; type: functional
Mus musculus [41] = assay: Anticonvulsant activity in ip dosed albino CF1 mouse assessed as protection against subcutaneous metrazol-induced seizures by measuring time to peak effect; type: functional
Mus musculus [42] = assay: Anticonvulsant activity in ip dosed albino CF1 mouse assessed as protection against 6 Hz current-induced seizures by psychomotor test; type: functional
Mus musculus [43] = assay: Anticonvulsant activity in ip dosed albino CF1 mouse assessed as protection against 6 Hz current-induced seizure by measuring time to peak effect; type: functional
[44] = Protective index, ratio of TD50 for neurotoxicity in ip dosed albino CF1 mouse to ED50 for anticonvulsant activity in ip dosed 6 Hz current-induced seizure albino CF1 mouse model; conditions: in vivo
[45] = Neurotoxicity in ip dosed albino CF1 mouse assessed as motor impairment by rotorod test; type: toxicity, organism-based; conditions: in vivo
Mus musculus [46] = assay: Anticonvulsant activity in albino CF1 mouse assessed as protection against maximal electroshock-induced seizures at 300 mg/kg, ip after 0.5 hrs; type: functional, organism-based
Mus musculus [47] = assay: Anticonvulsant activity in albino CF1 mouse assessed as protection against maximal electroshock-induced seizures at 30 mg/kg, ip after 2 hrs; type: functional, organism-based
Mus musculus [48] = assay: Anticonvulsant activity in albino CF1 mouse assessed as protection against 32 mA current-induced seizure at 30 mg/kg, ip after 0.5 hrs by 6 Hz psychomotor test; type: functional, organism-based
Mus musculus [49] = assay: Anticonvulsant activity in albino CF1 mouse assessed as protection against 32 mA current-induced seizure at 100 mg/kg, ip after 0.5 hrs by 6 Hz psychomotor test; type: functional, organism-based
Mus musculus [50] = assay: Anticonvulsant activity in albino CF1 mouse assessed as protection against 32 mA current-induced seizure at 100 mg/kg, ip after 2 hrs by 6 Hz psychomotor test; type: functional, organism-based
Mus musculus [51] = assay: Anticonvulsant activity in albino CF1 mouse assessed as protection against 32 mA current-induced seizure at 300 mg/kg, ip after 2 hrs by 6 Hz psychomotor test; type: functional, organism-based
Mus musculus [52] = assay: Anticonvulsant activity in albino CF1 mouse assessed as protection against 44 mA current-induced seizure at 50 mg/kg, ip after 0.25 hrs by 6 Hz psychomotor test; type: functional, organism-based
Mus musculus [53] = assay: Neurotoxicity in albino CF1 mouse assessed as behavioral impairment at 50 mg/kg, ip after 0.25 hrs by rotorod test; type: toxicity, organism-based; conditions: in vivo
Mus musculus [54] = assay: Neurotoxicity in albino CF1 mouse assessed as behavioral impairment at 50 mg/kg, ip after 1 hr by rotorod test; type: toxicity, organism-based; conditions: in vivo
Mus musculus [55] = assay: Neurotoxicity in albino CF1 mouse assessed as behavioral impairment at 50 mg/kg, ip after 2 hrs by rotorod test; type: toxicity, organism-based; conditions: in vivo

## CCCC(CC)OC(=O)NCCCn1ccnc1 (stereo not drawn)
Mus musculus [1]
  Activity: Active
Mus musculus [2]
  Activity: Active
Mus musculus [3]
  Activity: Active
Mus musculus [4]
  Activity: Active
Mus musculus [5]
  Activity: inactive
Mus musculus [6]
  Activity: Active
Mus musculus [7]
  Activity: Non-toxic
Mus musculus [8]
  Activity: Toxic
Mus musculus [9]
  Activity: Non-toxic
Mus musculus [10]
  Activity: Non-toxic
Mus musculus [11]
  Activity: Toxic
Mus musculus [12]
  Activity: Toxic
Mus musculus [13]
  Activity: Non-toxic
Rattus norvegicus [14]
  Activity: Active
Rattus norvegicus [15]
  Activity: Active
Rattus norvegicus [16]
  Activity: inactive
Rattus norvegicus [17]
  Activity: Active
Rattus norvegicus [18]
  Activity: inactive
Rattus norvegicus [19]
  Activity: Active
Rattus norvegicus [20]
  Activity: inactive
Rattus norvegicus [21]
  Activity: Non-toxic
Rattus norvegicus [22]
  Activity: Non-toxic
Rattus norvegicus [23]
  Activity: Non-toxic
Rattus norvegicus [24]
  Activity: Non-toxic
Rattus norvegicus [25]
  Activity: Non-toxic
Rattus norvegicus [26]
  Activity: Non-toxic
Rattus norvegicus [27]
  Activity: Non-toxic
Rattus norvegicus [28]
  Activity: Non-toxic
Rattus norvegicus [29]
  ED50: 17 mg/kg
Rattus norvegicus [30]
  Time: 0.25 h
[31]
  selectivity ratio: 5.4
Rattus norvegicus [32]
  ED50: > 92 mg/kg
[33]
  selectivity ratio: 1
[34]
  TD50: 92 mg/kg
Rattus norvegicus [35]
  Time: 0.25 h
Mus musculus [36]
  ED50: 28 mg/kg
[37]
  selectivity ratio: 3.1
Mus musculus [38]
  ED50: > 50 mg/kg
[39]
  selectivity ratio: 1.7
Mus musculus [40]
  Time: 0.5 h
Mus musculus [41]
  Time: 0.5 h
Mus musculus [42]
  ED50: 135 mg/kg
Mus musculus [43]
  Time: 0.5 h
[44]
  selectivity ratio: 0.64
[45]
  TD50: 86 mg/kg

## CCCC(CCC)COC(=O)NCCCn1ccnc1
Mus musculus [1]
  Activity: Active
Mus musculus [46]
  Activity: Active
Mus musculus [47]
  Activity: inactive
Mus musculus [48]
  Activity: inactive
Mus musculus [49]
  Activity: Active
Mus musculus [4]
  Activity: Active
Mus musculus [5]
  Activity: inactive
Mus musculus [50]
  Activity: Active
Mus musculus [51]
  Activity: Active
Mus musculus [52]
  Activity: inactive
Mus musculus [7]
  Activity: Non-toxic
Mus musculus [8]
  Activity: Toxic
Mus musculus [9]
  Activity: Non-toxic
Mus musculus [11]
  Activity: Toxic
Mus musculus [53]
  Activity: Non-toxic
Mus musculus [54]
  Activity: Non-toxic
Mus musculus [55]
  Activity: Non-toxic
Rattus norvegicus [14]
  Activity: Active
Rattus norvegicus [15]
  Activity: Active
Rattus norvegicus [16]
  Activity: inactive
Rattus norvegicus [18]
  Activity: inactive
Rattus norvegicus [19]
  Activity: inactive
Rattus norvegicus [20]
  Activity: inactive
Rattus norvegicus [21]
  Activity: Non-toxic
Rattus norvegicus [22]
  Activity: Non-toxic
Rattus norvegicus [23]
  Activity: Non-toxic
Rattus norvegicus [24]
  Activity: Non-toxic
Rattus norvegicus [25]
  Activity: Non-toxic
Rattus norvegicus [26]
  Activity: Non-toxic
Rattus norvegicus [27]
  Activity: Non-toxic
Rattus norvegicus [28]
  Activity: Non-toxic
Rattus norvegicus [29]
  ED50: 12 mg/kg
Rattus norvegicus [30]
  Time: 0.25 h
[31]
  selectivity ratio: 7.3
Rattus norvegicus [32]
  ED50: > 88 mg/kg
[33]
  selectivity ratio: 1
[34]
  TD50: 87 mg/kg
Rattus norvegicus [35]
  Time: 0.25 h
Mus musculus [36]
  ED50: 18 mg/kg
[37]
  selectivity ratio: 3.3
Mus musculus [38]
  ED50: > 70 mg/kg
[39]
  selectivity ratio: 0.9
Mus musculus [40]
  Time: 0.5 h
Mus musculus [41]
  Time: 0.5 h
Mus musculus [42]
  ED50: 32 mg/kg
Mus musculus [43]
  Time: 0.5 h
[44]
  selectivity ratio: 2
[45]
  TD50: 65 mg/kg
